Data: US10538545B2 (priority 2017, dated 2020)

Key:
[1] = system: AB (wild type) zebrafish embryos; conditions: in vivo
[2] = system: Tg (kdr:EGFP) zebrafish embryos; conditions: in vivo
WT-AB zebrafish embryos = conditions: in vivo
metmyoglobin (metMb) = biological target: T1, metmyoglobin (metMb) (Equus caballus, UniProt P68082); assay: Reaction of DNIC with metmyoglobin (nitroxyl transfer, UV-vis); assay type: biochemical; conditions: 10 μM DNIC + 10 μM metMb, 25 mM phosphate buffer pH 7.4
T1 construct: purchased TCl
Description: A typical procedure for nitroxyl-transfer reaction of DNIC-2 and metmyoglobin was described below using DNIC-2a as an example, whereas reaction of DNIC-2b/DNIC-2d and metMb follows the same procedure. 10 μM of metMb in 3.3 mL of 25 mM phosphate buffer (pH 7.4) was loaded in a 4-mL quartz cuvette and sealed with rubber septum under anaerobic N2 atmosphere. 10 μM of DNIC-2a (13.0 μL of 2.5 mM stock solution of DNIC-2a in THF) was added into this aqueous solution, which is thermostated at 25° C. UV-vis spectra of this reaction solution were measured after this reaction solution was incubated for 10 minutes.
A typical procedure for reaction of DNIC-1 and metmyoglobin was described below. To a 4-mL quartz cuvette containing 10 μM of metMb in 3.3 mL of 25 mM phosphate buffer (pH 7.4), 10 μM of DNIC-1, derived from 13.0 μL of 2.5 mM stock solution of DNIC-1 in THF was added via gas-tight syringe at room temperature. The reaction solution was incubated at ambient temperature for 8 hours. No change of UV-vis spectra for this reaction solution was observed.
In example 1, the reaction of a variety of DNICs with metmyoglobin was investigated so as to verify the universal role of bridging ligands, thiolate vs. pyrazolate, on dictating the NO^−-transfer reactivity.

[3] = system: soluble guanylate cyclase (sGC); parameters: species or system C. elegans; conditions: in vivo

T1 sequence (P68082 2-154 limits assumed): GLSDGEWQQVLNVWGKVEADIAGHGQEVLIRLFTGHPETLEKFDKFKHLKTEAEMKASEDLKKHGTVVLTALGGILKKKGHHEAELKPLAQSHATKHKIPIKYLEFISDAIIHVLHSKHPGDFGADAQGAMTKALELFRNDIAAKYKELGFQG

Compound	Cardiac Output [1] [nL/min]	Fractional Shortening [1]	Heart Rate [1] [bpm]	Short Axis Diameter ED(Dd) [1] [μm]	Short Axis Diameter ES(Ds) [1] [μm]	Ventricular Volume ED [1] [nL]	Ventricular Volume ED-ES [1] [nL]	Ventricular Volume ES [1] [nL]	Vessel Diameter (dorsal aorta diameter) [2] [μm]	Survival rate of zebrafish, Day 3 (WT-AB zebrafish embryos) [%]	Survival rate of zebrafish, Day 4 (WT-AB zebrafish embryos) [%]	Survival rate of zebrafish, Day 5 (WT-AB zebrafish embryos) [%]	acute toxicity on zebrafish embryo (WT-AB zebrafish embryos)	nitroxyl-transfer reactivity toward metmyoglobin (formation of MbNO, shift of UV-vis bands) (metmyoglobin (metMb))	change of diameter of heart short-axis at end systole (ES) [1]	enhancement of cardiac output [1]	enhancement of fractional shortening [1]	increase of the GFP fluorescence signal in CX3553 worms [3]
CNC[C@H](O)c1ccc(O)c(O)c1 [Epinephrine, epinephrine, reference compound]	37.4 ± 6.1	0.25 ± 0.04	144 ± 8	80.9 ± 1.4	61.0 ± 2.5	0.46 ± 0.05	0.26 ± 0.05	0.20 ± 0.03	–	–	–	–	–	–	–	–	–	–
[(NO)2Fe(μ-^NH2Pyr)2Fe(NO)2] [DNIC-2a]	48.4 ± 4.5	0.28 ± 0.02	145 ± 7	83.3 ± 2.5	59.6 ± 1.7	0.55 ± 0.03	0.34 ± 0.02	0.21 ± 0.02	25.6±0.6	100 ± 0.0	99.6 ± 0.7	98.4 ± 2.7	no acute toxicity	nitroxyl transfer from DNIC-2a to metmyoglobin	significant decrease	about 2 fold	about 2 fold	about 5.7 fold
